Laboratory results published in paper PMC6312923 (Life Science Alliance, 2018).

B1: Cdt2^PIP-3A: Cdt2 with I709, Y712, and F713 all mutated to alanine (protein, UniProt Q9NZJ0 1-730, looked up, variant I709A Y712A F713A)
Denticleless protein homolog: MLFNSVLRQPQLGVLRNGWSSQYPLQSLLTGYQCSGNDEHTSYGETGVPVPPFGCTFSSAPNMEHVLAVANEEGFVRLYNTESQSFRKKCFKEWMAHWNAVFDLAWVPGELKLVTAAGDQTAKFWDVKAGELIGTCKGHQCSLKSVAFSKFEKAVFCTGGRDGNIMVWDTRCNKKDGFYRQVNQISGAHNTSDKQTPSKPKKKQNSKGLAPSVDFQQSVTVVLFQDENTLVSAGAVDGIIKVWDLRKNYTAYRQEPIASKSFLYPGSSTRKLGYSSLILDSTGSTLFANCTDDNIYMFNMTGLKTSPVAIFNGHQNSTFYVKSSLSPDDQFLVSGSSDEAAYIWKVSTPWQPPTVLLGHSQEVTSVCWCPSDFTKIATCSDDNTLKIWRLNRGLEEKPGGDKLSTVGWASQKKKESRPGLVTVTSSQSTPAKAPRAKCNPSNSSPSSAACAPSCAGDLPLPSNTPTFSIKTSPAKARSPINRRGSVSSVSPKPPSSFKMSIRNWVTRTPSSSPPITPPASETKIMSPRKALIPVSQKSSQAEACSESRNRVKRRLDSSCLESVKQKCVKSCNCVTELDGQVENLHLDLCCLAGNQEDLSKDSLGPTKSSKIEGAGTSISEPPSPISPYASESCGTLPLPLRPCGEGSEMVGKENSSPENKNWLLAMAAKRKAENPSPRSPSSQTPNSRRQSGKKLPSPVTITPSSMRKACTAAHRKSQEDFCGPEHSTEL
modifications: FLAG tag
notes: Cdt2 with I709, Y712, and F713 all mutated to alanine

What was measured:
PCNA = test: Co-immunoprecipitation of PCNA with FLAG-tagged Cdt2 constructs; format: cell-based, human; conditions: for interaction with PCNA (reverse IP, anti-Myc): Myc-PCNA co-transfected, HEK293; for interaction with PCNA (anti-FLAG IP): cross-linked cells, 3FLAG fusions, no UV
Excerpt: Before cell lysate preparation, cells were cross-linked.
Figure 3. […] HEK293 cells were transfected with plasmids expressing the indicated Cdt2 fused to a C-terminal FLAG tag, cross-linked, and precipitated with anti-FLAG antibodies (arrows). […] The bands in the blank lanes for Cul4A blotting correspond to the cross-reacting bands to pre-stained marker. […] HEK293 cells were transfected with the indicated plasmids and treated as in A. * indicates nonspecific bands derived from IgGs. (C) A schematic drawing of the Cdt2 domain structure highlighting the C-terminal PIP box and a sequence alignment of PIP boxes in various organisms. The alanine-changed PIP box mutant of Cdt2 was shown (PIP-3A) together with Cdt1 PIP box. (D) HEK293 cells were transfected with Cdt2^WT or PIP box mutant (Cdt2^PIP-3A) C-terminally fused to a FLAG tag, treated as in B, and Cdt2 was precipitated with anti-FLAG resin.
Control or Cdt2-FLAG expressing 293 cells that were UV irradiated (50 J/m^2), or not UV irradiated, or in the middle S phase (5 h after release from aphidicolon arrest) were fixed with 0.02% formaldehyde for 10 min, lysed using 0.1% Triton X-100-containing modified cytoskeleton (mCSK) buffer (10 mM Pipes, pH 7.9, 100 mM NaCl, 300 mM sucrose, 0.1% [vol/vol] Triton X-100, 1 mM phenylmethylsulfonyl fluoride, 10 mM β-glycerophosphate, 1 mMNa3VO4, 10 mM NaF), and then sonicated. After centrifugation (120,000g, Beckman Type 45Ti rotor, for 20 min at 4°C), the supernatants were mixed with anti-FLAG antibody-conjugated magnetic beads (M8823; Sigma-Aldrich) for 1 h at 4°C to obtain immunoprecipitates. The precipitate was washed with ice-cold 0.1% Triton X-100 containing mCSK buffer and subsequently suspended in SDS sample buffer.

Cdt1 poly-ubiquitination = test: Poly-ubiquitination of Cdt1 in HEK293 cells; format: cell-based, human; conditions: for poly-ubiquitinated Cdt1 level: HEK293, MG132 3 h, asynchronous; for poly-ubiquitination of Cdt1 after UV: HEK293, endogenous Cdt2 depleted (siCdt2), MG132 25 μM, UV 20 J/m^2
Procedure: Figure 6. The Cdt2 PIP box is important for its recruitment to DNA damage sites and replication foci and for poly-ubiquitination activity. (A) HEK293 and stable Cdt2^WT or Cdt2^PIP-3A cells were locally UV irradiated, and stained for XPA and FLAG (Cdt2). XPA-positive spots were examined for FLAG signal, and its frequency was counted (%). More than 50 spots were examined. bar:10 μm. […] Bar: 10 μm. […] (D) Whole-cell extracts were prepared from HEK293 and stably transfected cells of Cdt2^WT or Cdt2^PIP-3A cells, separated into soluble (Sup) and chromatin-containing insoluble (Ppt) fractions, and were examined for indicated proteins. The asterisk indicates nonspecific bands. (E) HEK293 and stably transfected cells of Cdt2^WT or Cdt2^PIP-3A were treated with MG132 for 3 h. Whole-cell extracts (WCE) were prepared, separated into soluble (Sup) and insoluble (Ppt) fractions, and blotted with the indicated antibodies.
Figure S6. Cdt2 PIP box is important for its recruiting to DNA replication sites and its poly-ubiquitination activity in HEK293 cells. […] (B) Poly-ubiquitination after UV irradiation. HEK293 and its stables expressing Cdt2^WT or Cdt2^PIP-3A were transfected with siCdt2 or control (siLuc). Three days later, cells were treated with MG132 (25 μM), and 10 min later irradiated with UV (20 J/m^2). Cells were collected at the indicated time points, and used for Western blotting with indicated antibodies.
To consider this possibility, asynchronously growing control HEK293 cells and cells expressing Cdt2^WT or Cdt2^PIP-3A were treated with proteasome inhibitor MG132 and the levels of poly-ubiquitinated Cdt1 were examined. […] Cdt2^PIP-3A-expressing cells however had reduced level of both poly-ubiquitinated Cdt1 and p21 on chromatin.
Next, we examined the accumulation of poly-ubiquitinated Cdt1 after UV irradiation. For this experiment, the endogenous Cdt2 was depleted with an siRNA targeted to the 3′ UTR to assay for the activity of introduced Cdt2. Cells were treated with MG132, irradiated with UV and the levels of poly-ubiquitinated Cdt1 were monitored by Western blotting. In HEK293 cells treated with control siRNA, poly-ubiquitinated Cdt1 was detected 15 min after irradiation (Fig S6B). […] The defect was rescued by Cdt2^WT expression.

Molecule	interaction with PCNA (reverse IP, anti-Myc) (PCNA)	interaction with PCNA (anti-FLAG IP) (PCNA)	poly-ubiquitinated Cdt1 level (Cdt1 poly-ubiquitination)	poly-ubiquitination of Cdt1 after UV (Cdt1 poly-ubiquitination)
Cdt2: Cdt2 tagged with GFP, transiently expressed in MCF7 cells	co-precipitated with Myc-PCNA	interact with PCNA	clearly detected	rescued
B1	not detected in the precipitates	lost almost entirely	reduced	defective in poly-ubiquitination of Cdt1
